Measured values taken from PubChem BioAssay (NCI).
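Cultured in 96-well plates, cells were exposed to test compound for 48 hours across five concentrations. At the GI50, growth is halved. Definition used: TGI = concentration required for complete inhibition of growth.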

Tests used:
Test in all cases: NCI tumour cell line growth inhibition, 48 h
[1] = test system: HT29 colon
[2] = test system: EKVX NSCLC
[3] = test system: SF-539 CNS
[4] = test system: OVCAR-4 ovarian
[5] = test system: OVCAR-8 ovarian
[6] = test system: NCI-H460 lung
[7] = test system: RXF 393 renal
[8] = test system: SR leukemia
[9] = test system: SK-MEL-2 melanoma
[10] = test system: TK-10 renal

SMILES | GI50 [1] | TGI [1] | GI50 [2] | TGI [2] | GI50 [3] | TGI [3] | GI50 [4] | GI50 [5] | TGI [5] | GI50 [6] | TGI [6] | GI50 [7] | TGI [7] | GI50 [8] | TGI [8] | GI50 [9] | TGI [9] | GI50 [10] | TGI [10] | TGI [4]
COc1cc(F)ccc1-c1cc(Nc2cc(CS(C)(=N)=O)ccn2)ncc1F (stereo not drawn) | 0.0945 µM | > 100 µM | 0.153 µM | 8.63 µM | 0.0366 µM | 0.272 µM | 0.227 µM | 0.0914 µM | > 100 µM | 0.0593 µM | > 100 µM | 0.0221 µM | 0.0536 µM | 0.0174 µM | 1.29 µM | 0.135 µM | 0.437 µM | 0.151 µM | > 100 µM | 
CC(=O)c1ccc(NC(=O)C(=O)C(C(=O)/C=C/c2ccccc2)C2OC(=O)c3ccccc32)cc1 (stereo not drawn) |  | > 100 µM |  | > 100 µM |  | > 100 µM |  |  | > 100 µM |  | > 100 µM |  | > 100 µM |  | > 100 µM |  | > 100 µM |  | > 100 µM | > 100 µM
COc1cccc(CNc2ncnc3c2ncn3C2OC(CO)C(O)C2O)c1O (stereo not drawn) | 0.9 µM | > 100 µM | 0.559 µM | > 59.6 µM | 0.144 µM | 1.85 µM | 0.105 µM | 0.0679 µM | > 43 µM | 0.931 µM | > 100 µM | 0.0438 µM | 0.36 µM | 0.0651 µM |  | 0.656 µM | > 100 µM | 0.058 µM | 1.38 µM | > 100 µM
CSc1ncnc2c1ncn2CC(=O)C1CCC2C3CCC4=CC(=O)CCC4(C)C3CCC12C (stereo not drawn) |  | > 100 µM |  | 68.3 µM |  | 44.7 µM |  |  | > 40.7 µM |  | 18.9 µM |  | > 100 µM |  | 5.56 µM |  | 11.6 µM |  | 30.1 µM | 21.3 µM
N=c1c2ccccc2sc2nc3ccccc3n12 |  | > 100 µM |  | > 100 µM |  | > 100 µM |  |  | > 100 µM |  | > 100 µM |  | > 100 µM |  | > 100 µM |  | > 100 µM |  | > 100 µM | > 100 µM
NC(=O)c1cccnc1 | > 100 µM | > 100 µM | > 100 µM | > 100 µM | > 100 µM | > 100 µM | > 100 µM | > 100 µM | > 100 µM | > 100 µM | > 100 µM | > 100 µM | > 100 µM | 59.8 µM | > 100 µM | > 100 µM | > 100 µM | > 100 µM | > 100 µM | > 100 µM
C/C(=C(/c1ccccc1)c1ccc(OCC(O)CNCCN2CCOCC2)cc1)c1ccccc1 (stereo not drawn) | 2.03 µM | 4.86 µM | 7.15 µM | 20.6 µM | 1.63 µM | 2.99 µM | 3.82 µM | 3.74 µM | 15.1 µM | 1.8 µM | 3.4 µM | 1.91 µM | 4.22 µM | 1.66 µM | 4.02 µM | 2.5 µM | 6.24 µM | 2.69 µM | 7.93 µM | 14.4 µM
